In patent US4032659A (priority 1975, dated 1977):
“Also recorded” adds a separate entry of the source. Read-outs that look alike come from different tables or passages of the source.

Columns and labels:
[1] = system: Herpes virus; format: in vivo, mouse
[2] = system: Influenza PR 8 virus; assay: Chemoprophylaxis of Influenza PR 8 virus infection in mice; format: in vivo, mouse; conditions: for Survivors / No. animals surviving when 18/20 of controls are dead: oral
[3] = system: Influenza Ann Arbor virus; assay: Chemoprophylaxis of Influenza Ann Arbor (A1) virus infection in mice; format: in vivo, mouse
[4] = system: Herpes virus; assay: Herpes virus in eggs (chick embryo survival); format: in vivo, chicken eggs; conditions: all doses
[5] = system: Vaccinia virus; format: cell-based, fertile eggs; conditions: various concentrations
[6] = system: Influenza B Massachusetts virus; assay: Chemoprophylaxis of Influenza B Massachusetts virus infection in mice; format: in vivo, mouse; conditions: oral
Experimental: The activity of four compounds on Influenza B Mass. was tested in mice.
A portion of a commercially available sample of amantadine was recrystallized from isopropanol. The activity of the material against Influenza B Mass. was tested for the sample as obtained, the recrystallized portion, and the mother liquor obtained from recrystallizing the portion.

[7] = system: virus infections; assay: Antiviral screening program, several viruses; conditions: mouse, in vivo
[8] = system: Influenza B Maryland virus; assay: Chemoprophylaxis of Influenza B Maryland virus infection in mice; format: in vivo, mouse; conditions: for No. animals surviving when 18/20 of controls are dead / Survivors: oral
[9] = system: pox virus; assay: Pox virus infections of mice; conditions: mouse, in vivo
[10] = system: Columbia SK Polio virus; conditions: mouse, in vivo
[11] = system: Vaccinia virus; format: in vivo; conditions: scarified rabbit skin

NNC(N)=O [semicarbazide]
Survivors ([1]; oral, total dose .000005 μg): 0 | Survivors ([1]; oral, total dose .5 μg): 0 | Survivors ([2]; total dose .000005 μg): 0 | No. animals surviving when 18/20 of controls are dead ([2]; total dose .00005 μg): 0 | Survivors ([2]; total dose .00005 μg): 0 | No. animals surviving when 18/20 of controls are dead ([2]; total dose .0005 μg): 0 | Survivors ([2]; total dose .0005 μg): 0 | No. animals surviving when 18/20 of controls are dead ([2]; total dose .005 μg): 0 | Survivors ([2]; total dose .005 μg): 0 | No. animals surviving when 18/20 of controls are dead ([2]; total dose .05 μg): 4 | Survivors ([2]; total dose .05 μg): 4 | total number of survivors ([3]; oral, four dose levels): 10 | Survivors ([3]; subcutaneous, total dose .05 μg): 0 | No. Living Longer Than Controls, total [4]: 10 | effect on pox formation on the membrane [5]: No effect on pox formation on the membrane could be observed | No. animals surviving when 100% controls are dead ([6]; total dose .000005 μg): 0 | Survivors ([6]; total dose .000005 μg): 0 | No. animals surviving when 100% controls are dead ([6]; total dose .00005 μg): 0 | Survivors ([6]; total dose .00005 μg): 0 | No. animals surviving when 100% controls are dead ([6]; total dose .0005 μg): 1 | Survivors ([6]; total dose .0005 μg): 0 | No. animals surviving after 5 days ([6]; total dose .005 μg): 6 | Survivors ([6]; total dose .005 μg): 0 | No. animals surviving after 5 days ([6]; total dose .05 μg): 6 | No. animals surviving when 100% controls are dead ([6]; total dose .05 μg): 1 | Survivors ([6]; total dose .05 μg): 0 | No. animals surviving after 5 days ([6]; total dose .5 μg): 4 | No. animals surviving when 100% controls are dead ([6]; total dose .5 μg): 1 | Survivors ([6]; total dose .5 μg): 0

CN1C(=O)/C(=N\NC(N)=S)c2ccccc21 [Methisazone, 1-methylindole-2,3-dione,3-thiosemicarbazone, reference compound]
activity (in words) [7]: found to have activity | No. animals surviving after 6 days ([1]; mouse, in vivo, po): 1 | No. animals surviving after 6 days ([1]; oral, total dose .00005 μg): 0 | No. animals surviving after 6 days ([1]; oral, total dose .0005 μg): 0 | No. animals surviving after 6 days ([1]; oral, total dose .005 μg): 0 | Survivors ([1]; oral, total dose .05 μg): 0 | No. animals surviving after 5 days ([3]; oral, total dose 5 μg): 4 | Survivors ([3]; oral, total dose 5 μg): 0 | No. animals surviving after 5 days ([3]; oral, total dose 50 μg): 3 | Survivors ([3]; oral, total dose 50 μg): 0 | No. animals surviving after 5 days ([3]; oral, total dose .00005 μg): 6 | Survivors ([3]; oral, total dose .00005 μg): 0 | No. animals surviving after 5 days ([3]; oral, total dose .0005 μg): 5 | Survivors ([3]; oral, total dose .0005 μg): 0 | No. animals surviving after 5 days ([3]; oral, total dose .005 μg): 5 | Survivors ([3]; oral, total dose .005 μg): 0 | No. animals surviving after 5 days ([3]; oral, total dose .05 μg): 4 | Survivors ([3]; oral, total dose .05 μg): 0 | No. animals surviving after 5 days ([3]; oral, total dose .5 μg): 6 | Survivors ([3]; oral, total dose .5 μg): 0 | activity ([8]; mouse, in vivo): active against Influenza B Maryland virus | No. animals surviving when 18/20 of controls are dead ([8]; total dose 6 ng): 4 | Survivors ([8]; total dose 6 ng): 2 | No. animals surviving when 18/20 of controls are dead ([8]; total dose 60 ng): 4 | Survivors ([8]; total dose 60 ng): 2 | No. animals surviving when 18/20 of controls are dead ([8]; total dose 600 ng): 2 | Survivors ([8]; total dose 600 ng): 2 | No. animals surviving when 18/20 of controls are dead ([8]; total dose 6 μg): 4 | Survivors ([8]; total dose 6 μg): 1 | activity [9]: active against pox virus infections of mice

CCC(C)=NNC(N)=S [thiosemicarbazone]
protection against death ([2]; drinking water 24 h pre- and 24 h post-infection): significantly protected against death | statistically significant geometric mean survival time [10]: two instances of a statistically significant geometric mean survival time | effect on pox formation [11]: dramatic reduction and even elimination of all pox formation over several dilutions; also recorded: highly significant diminution of pox formation
